# According to US20210301038A1, “POLYSIALIC ACID AND DERIVATIVES THEREOF, PHARMACEUTICAL COMPOSITION AND METHOD OF PRODUCING POLYSIALIC ACID” (Medizinische Hochschule Hannover (MHH), priority 2018, published 2021):
# Tests used:
# [1] = tested on: C57BL/6J mice with intra-mPFC endoNF injection; assay: Novel object recognition test before and after intra-mPFC endoNF injection; assay type: in vivo, mouse; details: 30 min before encoding; sarcosine 600 mg/kg i.p. (d2); DP12 (d5) and DP1 (d6) 1 mg/kg intranasally
# Experimental: Guide cannulas were fabricated using stainless steel tubing with outer/inner diameter Ø 0.711/0.483 mm (Science Products, Germany). Dummy cannulas were made from entomological pins, size 2, Ø 0.41 mm (FST, Germany). Chronic implantation of cannulas into the mPFC in mice was performed as described previously for intrahippocampal injections (Kochlamazashvili et al., 2012; Senkov et al., 2015; Senkov et al., 2006).
# Acute injection of endoNF in vivo was done under a short isoflurane anesthesia. For intra-mPFC injection, we used a digitally controlled infusion system (UltraMicroPump, UMP3, and Micro4 Controller, WPI, USA) fed with a 10 μl-Hamilton syringe and NanoFil 135 μm (35 GA) beveled needle. The thin (135 μm) part of the needle went into the mouse brain during injection, whereas its thick part (430 μm) fit perfectly in the guide cannula (inside 483 μm). Injections were performed as follows: 1) a mouse was anesthetized with 1-3% isoflurane as during implantation; 2) it was put into the stereotaxic frame; 3) the dummy cannula was gently removed from the left guide cannula; 4) a NanoFil injecting needle was carefully placed inside of the guide cannula and advanced further down until reaching the marker (made with a permanent pen at the needle shank (430 μm) to visualize the point when the needle should reach the surface of the brain coming out of the guide cannula (equal to the length of guide cannula); 5) once the marker was reached, a slow (10 μm increment) step dial was used to deepen the needle into the brain; 6) endoNF (2 μg/μl) or vehicle was injected with the following settings: 250 nl per site as deep as 1.5 and 2.25 mm from the brain surface (total injection volume per hemisphere 500 nl, injection rate of 3 nl/s); 7) after injection was complete (˜5 min), the needle was left in the injection site for another 5 min and then gently removed; 8) the dummy cannula was then put back to its place; 9) the same procedure was performed for the right hemisphere. The whole injection process took approximately 20-25 min under isoflurane anesthesia, and the mice recovered rather quickly, starting to move in approximately 2-3 min after being returned to their home cages. Complete recovery of a mouse after such short anesthesia usually occurs within 3-5 min. After injection, mice were returned to their animal facility. Behavior experiments started on the day after injection at approximately the same time, so that we could perform cognitive tests 24 hours after injection.
# A white open field arena (50×50×30 cm) was used in the novel object recognition task. All behavior was video recorded and analyzed automatically by software (ANY-maze, version 4.99, Stoelting Co., Wood Dale, Ill.). […]
# [2] = tested on: mPFC slices of AAV-GFP-Tau[R406W] infected mice; assay: mPFC LTP in mice overexpressing GFP-Tau[R406W]; assay type: cell-based, mouse; details: bath application of 0.3 μM DP12; 50-60 min after induction
# Experimental: Prefrontal slices (400 μm) were transferred to a submerged-type recording MC membrane chamber (volume 2 ml; Scientific Systems Design Inc., Mississauga, Ontario, Canada) perfused with oxygenated recording ACSF at a flow rate of 4 ml/min and maintained at room temperature (22-25° C.), unless stated otherwise in the “Results”-section given below. Field EPSPs were evoked and recorded using thin-walled glass electrodes (borosilicate glass, wall thickness 0.188, length 100, and outer diameter 1.5 mm, Hilgenberg, Malsfeld, Germany) filled with recording aCSF in 400 μm-thick mPFC slices. […]
# Before LTP induction, basal synaptic transmission was recorded in each slice and the relationship between stimulus intensity and fEPSP slope was measured. […] The supramaximal slope was determined by gradually increasing the stimulation intensity until a population spike in the fEPSP became first visible. […]
# LTP was induced by application of five trains of theta-burst stimulation (TBS) with an inter-theta-train interval of 20 s (Brennaman et al., 2011). […] For calculation of the LTP level, the mean fEPSP slope was measured between 50-60 min after TBS delivery, and it was then normalized to mean baseline fEPSP slope during 0-10 min before TBS. Stimulus artifacts in representative fEPSP examples in figures were blanked to facilitate the perception of fEPSPs recorded in the mPFC. […]
substance,measurement,setting,value
(α(2→8)Neu5Ac)12 [DP12],novel object recognition after intra-mPFC endoNF injection,[1],significantly improved novel object recognition
same,rescue of impaired mPFC LTP,[2],fully rescue LTP
